Data taken from patent US7189720B2 (H. Lundbeck A/S, priority 1999, dated 2007).
Structures can show the parent of a compound that is named as a salt. Where two headings read alike, the source gives them in different places.

Experiments:
human Y5 receptor [1] = target: T1, human Y5 receptor (Homo sapiens, UniProt Q15761); test: Radioligand binding to membranes, cloned human Y5 receptor
T1 construct: expressed in transfected cells; host or cells: mouse fibroblast LM(tk-) cells, e.g. L-hY5-7 (ATCC CRL-11995)
T1 sequence (Q15761 1-445): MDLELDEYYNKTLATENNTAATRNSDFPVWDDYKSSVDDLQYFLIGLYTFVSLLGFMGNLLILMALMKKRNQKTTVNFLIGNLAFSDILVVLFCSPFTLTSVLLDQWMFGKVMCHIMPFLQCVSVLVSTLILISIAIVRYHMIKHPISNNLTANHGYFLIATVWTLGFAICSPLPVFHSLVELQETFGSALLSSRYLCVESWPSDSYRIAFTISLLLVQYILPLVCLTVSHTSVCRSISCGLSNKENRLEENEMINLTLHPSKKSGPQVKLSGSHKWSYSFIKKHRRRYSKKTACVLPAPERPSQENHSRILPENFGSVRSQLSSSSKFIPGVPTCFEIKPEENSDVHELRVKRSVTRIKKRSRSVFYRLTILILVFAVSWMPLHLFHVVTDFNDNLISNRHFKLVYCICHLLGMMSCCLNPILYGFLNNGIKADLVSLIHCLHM
Experimental: (§1) Binding of the compounds of the present invention to human Y1, Y2, Y4, and Y5 receptors was evaluated using stably transfected 293 or LM(tk-) cells as described above.
(§2) Membranes were harvested from COS-7 cells 48 hours after transient transfection. Adherent cells were washed twice in ice-cold phosphate buffered saline (138 mM NaCl, 8.1 mM Na2HPO4, 2.5 mM KCl, 1.2 mM KH2PO4, 0.9 mM CaCl2, 0.5 mM MgCl2, pH 7.4) and lysed by sonication in ice-cold sonication buffer (20 mM Tris-HCl, 5 mM EDTA, pH 7.7). Large particles and debris were cleared by low speed centrifugation (200×g, 5 min, 4° C.). Membranes were collected from the supernatant fraction by centrifugation (32,000×g, 18 min, 4° C.), washed with ice-cold hypotonic buffer, and collected again by centrifugation (32,000×g, 18 min, 4° C.). The final membrane pellet was resuspended by sonication into a small volume of ice-cold binding buffer (˜1 ml for every 5 plates: 10 mM NaCl, 20 mM HEPES, 0.22 mM KH2PO4, 1.26 mM CaCl2, 0.81 mM MgSO4, pH 7.4). Protein concentration was measured by the Bradford method (Bradford, 1976) using Bio-Rad Reagent, with bovine serum albumin as a standard. Membranes were held on ice for up to one hour and used fresh, or flash-frozen and stored in liquid nitrogen.
(§3) Membranes were prepared similarly from 293, LM(tk-), and NIH-3T3 cells.
(§4) Membrane suspensions were diluted in binding buffer supplemented with 0.1% bovine serum albumin to yield an optimal membrane protein concentration so that ^125I-PYY (or alternative radioligand such as ^125I-NPY, ^125I-NYY3-36, or ^125I-[Leu^31Pro^34]PYY) bound by membranes in the assay was less than 10% of ^125I-PYY (or alternative radioligand) delivered to the sample (100,000 dpm/sample=0.08 nM for competition binding assays). ^125I-PYY (or alternative radioligand) and peptide competitors were also diluted to desired concentrations in supplemented binding buffer. Individual samples were then prepared in 96-well polypropylene microtiter plates by mixing ^125I-PYY (25 μL) (or alternative radioligand), competing peptides or supplemented binding buffer (25 μL), and finally, membrane suspensions (200 μL). Samples were incubated in a 30° C. water bath with constant shaking for 120 min. Incubations were terminated by filtration over Whatman GF/C filters (pre-coated with 1% polyethyleneimine and air-dried before use), followed by washing with 5 mL of ice-cold binding buffer. Filter-trapped membranes were impregnated with MeltiLex solid scintillant (Wallac, Turku, Finland) and counted for ^125I in a Wallac Beta-Plate Reader. Alternatively, incubations were carried out in GF/C filter plates (pre-coated with 1% polyethyleneimine and air-dried before use), followed by vacuum filtration and three washes of 300 μL of ice-cold binding buffer. 50 μL of UltimaGold (Packard) scintillant were added and counted for ^125I, in a Wallac MicroBeta Trilux. Non-specific binding was defined by 300 nM human NPY for all receptors except the Y4 subtypes; 100 nM human PP was used for the human Y4 and 100 nM rat PP for the rat Y4.

human Y5 receptor [2] = target: T1, human Y5 receptor; test: Functional assay: radioimmunoassay of cAMP in stably transfected cells; assay type: cell-based; settings: Functional Antagonism Data, Table 7
Experimental: LM(tk-) cells stably transfected with the human Y5 receptor were routinely converted from an adherent monolayer to a viable suspension. Adherent cells were harvested with trypsin at the point of confluence, resuspended in a minimal volume of complete DMEM for a cell count, and further diluted to a concentration of 10^6 cells/ml in suspension media (10% bovine calf serum, 10% 10× Medium 199 (Gibco), 9 mM NaHCO3, 25 mM glucose, 2 mM L-glutamine, 100 units/ml penicillin/100 μg/ml streptomycin, and 0.05% methyl cellulose). The cell suspension was maintained in a shaking incubator at 37° C., 5% CO2 for 24 hours. Membranes harvested from cells grown in this manner may be stored as large, uniform batches in liquid nitrogen. Alternatively, cells may be returned to adherent cell culture in complete DMEM by distribution into 96-well microtiter plates coated with poly-D-lysine (0.01 mg/ml) followed by incubation at 37° C., 5% CO2 for 24 hours.
Stably transfected cells were seeded into 96-well microtiter plates and cultured until confluent. […] Cells were washed in […] buffered saline, or HBS (150 mM NaCl, 20 mM HEPES, 1 mM CaCl2, 5 mM KCl, 1 mM MgCl2, and 10 mM glucose) supplemented with 0.1% bovine serum albumin plus 5 mM theophylline and pre-equilibrated in the same solution for 20 min at 37° C. in 5% CO2. Cells were then incubated 5 min with 10 μM forskolin and various concentrations of receptor-selective ligands. The assay was terminated by the removal of HBS and acidification of the cells with 100 mM HCl. Intracellular cAMP was extracted and quantified with a modified version of a magnetic bead-based radioimmunoassay (Advanced Magnetics, Cambridge, Mass.). The final antigen/antibody complex was separated from free ^125I-cAMP by vacuum filtration through a PVDF filter in a microtiter plate (Millipore, Bedford, Mass.). Filters were punched and counted for ^125I, in a Packard gamma counter.

human Y1 receptor = target: T2, human Y1 receptor (Homo sapiens, UniProt P25929); test: Radioligand binding to membranes, cloned human Y1 receptor; settings: text b745; read-out: Ki (nM) NPY (Y1)
T2 construct: expressed in transfected cells; host or cells: human embryonic kidney 293 cells, e.g. 293-hY1-5 (ATCC CRL-12121)
T2 sequence (P25929 1-384): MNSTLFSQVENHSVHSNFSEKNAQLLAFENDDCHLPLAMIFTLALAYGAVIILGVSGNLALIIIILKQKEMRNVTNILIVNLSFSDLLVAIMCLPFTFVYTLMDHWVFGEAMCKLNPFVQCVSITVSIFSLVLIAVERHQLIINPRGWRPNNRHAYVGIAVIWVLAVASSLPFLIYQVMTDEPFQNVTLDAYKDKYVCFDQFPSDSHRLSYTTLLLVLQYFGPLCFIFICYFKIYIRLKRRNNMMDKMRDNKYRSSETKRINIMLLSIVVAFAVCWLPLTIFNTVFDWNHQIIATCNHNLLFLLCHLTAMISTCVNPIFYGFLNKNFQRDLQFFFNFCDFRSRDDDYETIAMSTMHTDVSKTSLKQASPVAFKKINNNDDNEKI
Experimental: as §1, §2, §3, §4

human Y4 receptor = target: T3, human Y4 receptor (Homo sapiens, UniProt P50391); test: Radioligand binding to membranes, cloned human Y4 receptor; settings: text b745; read-out: Ki (nM) NPY (Y4)
T3 construct: expressed in transfected cells; host or cells: mouse fibroblast LM(tk-) cells, e.g. L-hY4-3 (ATCC CRL-11779)
Experimental: as §1, §2, §3, §4

human Y2 receptor = target: T4, human Y2 receptor (Homo sapiens, UniProt P49146); test: Radioligand binding to membranes, cloned human Y2 receptor
T4 sequence (P49146 1-381): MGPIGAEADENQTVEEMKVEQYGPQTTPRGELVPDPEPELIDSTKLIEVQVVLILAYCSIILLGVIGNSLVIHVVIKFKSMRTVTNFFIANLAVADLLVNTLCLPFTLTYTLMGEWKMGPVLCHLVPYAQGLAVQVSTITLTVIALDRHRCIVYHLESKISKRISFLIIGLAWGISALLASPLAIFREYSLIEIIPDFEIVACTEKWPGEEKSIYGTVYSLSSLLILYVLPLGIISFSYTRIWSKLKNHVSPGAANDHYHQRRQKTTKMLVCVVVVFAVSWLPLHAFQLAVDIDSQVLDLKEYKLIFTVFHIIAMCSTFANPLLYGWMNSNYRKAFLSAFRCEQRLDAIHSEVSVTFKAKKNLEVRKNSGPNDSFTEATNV
Experimental: as §1, §2, §3, §4

[3] = Table 6, read-out: Ki, nM hNPY-5

T3 sequence (P50391 whole entry): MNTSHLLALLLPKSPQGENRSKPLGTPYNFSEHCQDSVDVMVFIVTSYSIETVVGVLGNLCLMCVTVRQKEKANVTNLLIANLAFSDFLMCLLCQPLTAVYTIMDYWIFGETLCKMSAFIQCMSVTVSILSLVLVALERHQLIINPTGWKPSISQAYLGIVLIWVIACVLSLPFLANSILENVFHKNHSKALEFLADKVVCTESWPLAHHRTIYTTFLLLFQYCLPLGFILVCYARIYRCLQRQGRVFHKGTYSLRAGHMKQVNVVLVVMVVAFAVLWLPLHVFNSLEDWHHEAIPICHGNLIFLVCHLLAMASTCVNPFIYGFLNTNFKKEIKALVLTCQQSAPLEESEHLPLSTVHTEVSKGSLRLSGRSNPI

| Structure (SMILES) | Kb (human Y5 receptor [2]) [µM] | melting point [°C] | also measured |
| --- | --- | --- | --- |
| CC(C)Nc1nc(Cl)nc(NCC2CCC(CNS(=O)(=O)c3cccc4ccccc34)CC2)n1 (centres unmarked) [Example 49, N1-{[4-({[4-chloro-6-(isopropylamino)-1,3,5-triazin-2-yl]amino}methyl)cyclohexyl]methyl}-1-naphthalenesulfonamide] | 1 | – | Ki (human Y5 receptor [1]; Table 3, read-out: Ki (nM) hNPY-5): 138 nM; Ki (human Y1 receptor): > 100000 nM; Ki (human Y4 receptor): > 100000 nM; Ki (human Y2 receptor): > 100 µM |
| CNc1nc(NCC2CCC(CNS(=O)(=O)c3cccc4ccccc34)CC2)nc(NC(C)C)n1 (centres unmarked) [Example 1, N1-{[4-({[4-(Isopropylamino)-6-(methylamino)-1,3,5-triazin-2-yl]amino}methyl)cyclohexyl]methyl}-1-naphthalenesulfonamide] | 0.2 | – | Ki (human Y5 receptor [1]; Table 1, read-out: Ki (nM) hNPY-5): 13 nM |
| CCNc1nc(NCC)nc(NCC2CCC(CNS(=O)(=O)c3cccs3)CC2)n1 (centres unmarked) [Example 37, N2-[4-([4,6-di(ethylamino)-1,3,5-triazin-2-yl]aminomethyl)cyclohexyl]methyl-2-thiophenesulfonamide] | 0.158 | – | Ki (human Y5 receptor [1]; Table 2, read-out: Ki (nM) hNPY-5): 55 nM |
| COc1ccc(C)cc1S(=O)(=O)NCCCCCNc1nc(-c2ccccn2)cs1 (as salt: chloride) [Example 65, 2-(5-(2-Methoxy-5-methylphenyl)sulfonylamino)pentylamino-4-(2-pyridyl)thiazole hydrogen chloride] | – | 155 to 156 | – |
| COc1ccc(S(=O)(=O)NCCCCCNc2nc(-c3ccccn3)cs2)cc1 (as salt: chloride) [Example 62, 2-(5-(4-Methoxyphenyl)sulfonylamino)pentylamino-4-(2-pyridyl)thiazole hydrogen chloride] | – | 54 to 57 | – |
| O=S(=O)(NCCCCCNc1nc(-c2ccccn2)cs1)c1cccs1 (as salt: chloride) [Example 60, 4-(2-Pyridyl)-2-(5-(2-thienyl)sulfonylaminopentyl)-amino-thiazole hydrogen chloride] | – | 75 to 77 | – |
| O=S(=O)(Cc1ccccc1)NCCCCCNc1nc(-c2ccccn2)cs1 (as salt: chloride) [Example 66, 2-(5-(Benzylsulfonylamino)pentylamino-4-(2-pyridyl)thiazole hydrogen chloride] | – | 62 to 64 | – |
| O=S(=O)(NCCCCCNc1nc(-c2ccccn2)cs1)c1ccc(F)c(F)c1 (as salt: chloride) [Example 64, 2-(5-(3,4-Difluorophenyl)sulfonylamino)pentylamino-4-(2-pyridyl)thiazole hydrogen chloride] | – | 65 to 68 | – |

Further lines, with some results ahead:

| Kb (human Y5 receptor [2]) [µM] | melting point [°C] | Structure (SMILES) | also measured |
| --- | --- | --- | --- |
| 0.00251 | – | CS(=O)(=O)NC[C@H]1CC[C@H](Nc2nc3c(s2)CCSc2ccccc2-3)CC1 [Example 104, N-{[4-(4,5-Dihydrobenzo[2,3]thiepino[4,5-d][1,3]thiazol-2-ylamino)cyclohexyl]methyl}-methanesulfonamide] | Ki (human Y5 receptor [1]; [3]): 6.8 nM |
| 0.00398 | – | Cc1nc(-c2csc(N[C@H]3CC[C@H](CNS(=O)(=O)N(C)C)CC3)n2)c(C)s1 [Example 98, trans-N′-[(4-[4-(2,5-dimethyl-1,3-thiazol-4-yl)-1,3-thiazol-2-yl]aminocyclohexyl)methyl]-N,N-dimethylsulfamide] | Ki (human Y5 receptor [1]; Table 5, read-out: Ki, nM hNPY-5): 1.5 nM |
| – | 49 to 51 | CCS(=O)(=O)NCCCCCNc1nc(-c2ccccn2)cs1 (as salt: chloride) [Example 67, 2-(5-(Ethylsulfonylamino)pentyl)amino-4-(2-pyridyl)thiazole hydrogen chloride] | – |
| – | 108 to 109 | Cc1noc(C)c1S(=O)(=O)NCCCCCNc1nc(-c2ccncc2)cs1 (as salt: chloride) [Example 74, 2-(5-(3,5-Dimethylisoxazol-4-yl)sulfonylamino)pentylamino-4-(4-pyridyl)thiazole hydrogen chloride] | – |
| – | 141 to 142 | O=S(=O)(N[C@H]1CC[C@H](CNc2nc(-c3cccnc3)cs2)CC1)c1ccccc1F (as salt: chloride) [Example 86, trans-2-(4-(2-Fluorophenyl)sulfonylamino)cyclohexylmethyl-amino-4-(3-pyridyl)thiazole dihydrogen chloride] | – |
| – | 111 to 113 | COc1ccc(C)cc1S(=O)(=O)N[C@H]1CC[C@H](CNc2nc(-c3ccccn3)cs2)CC1 (as salt: chloride) [Example 83, trans-2-(4-(2-Methoxy-5-methylphenyl)sulfonylamino)-cyclohexylmethylamino-4-(2-pyridyl)thiazole dihydrogen chloride] | – |
| – | 97 to 98 | O=S(=O)(NCCCCCNc1nc(-c2ccncc2)cs1)c1ccccc1F (as salt: chloride) [Example 73, 2-(5-(2-Fluoro)phenylsulfonylamino)pentylamino-4-(4-pyridyl)thiazole hydrogen chloride] | – |
| 0.02 | – | O=S(=O)(NC[C@H]1CC[C@H](Nc2nc3c(s2)CCSc2ccccc2-3)CC1)c1cccc2cccnc12 [Example 157, N8-{[4-(4,5-Dihydrobenzo[2,3]thiepino[4,5-d][1,3]thiazol-2-ylamino)cyclohexyl]methyl}-8-quinolinesulfonamide] | Ki (human Y5 receptor [1]; [3]): 5.7 nM |
| – | 68 to 70 | NS(=O)(=O)NCCCCCNc1nc(-c2ccccn2)cs1 (as salt: chloride) [Example 69, 2-(5-(Aminosulfonylamino)pentyl)amino-4-(2-pyridyl)thiazole hydrogen chloride] | – |
